# Laboratory results from patent US20250214942A1, “INHIBITORS OF RECEPTOR INTERACTING PROTEIN KINASE I FOR THE TREATMENT OF DISEASE” (Board of Regents, The University of Texas System, priority 2019, published 2025).
# Tested on: human monocytic cell line U937
# Assay: Human U937 cellular necroptosis assay (TNFalpha + z-VAD-FMK, Cell Titer-Glo viability)
# Format: cell-based
# Conditions: Homo sapiens, U-937, 22 h, U937 cells, 25 ng/mL human TNFalpha + 25 μM z-VAD-FMK, read-out: hU937 Avg IC50
# Protocol: The human monocytic cell line U937 (CRL-1593.2) was purchased from ATCC. The cells were routinely maintained in RPMI-1640 Medium (Gibco, Catalog #11875-093) supplemented with 10% heat inactivated fetal bovine serum (Gibco, Catalog #16140-071), 100 units/mL penicillin and 100 μg/mL streptomycin (Gibco, Catalog #15140-122), in a humidified incubator (37° C., 5% CO2). For the assay, cells were resuspended in RPMI-1640 phenol red free Media (Gibco, Catalog #11835-030) supplemented with 10% fetal bovine serum (Sigma, Catalog #F2442), 100 units/mL penicillin and 100 ug/mL streptomycin. Cells were stimulated with 25 ng/mL human TNFalpha (Cell Sciences, Catalog #CSI15659B) and 25 μM z-VAD-FMK (R&D Systems, Catalog #FMK001) followed by seeding 5000 cells per well in a volume of 40 μL to a white, CulturPlate-384 (Perkin Elmer, Catalog #6007680). Stock solutions of the test compounds were prepared in 100% DMSO (Sigma, Catalog #D2650) and serially diluted 1:3 using 100% DMSO. Compounds were additionally diluted 1:40 in assay medium, and 10 μL/well was transferred to the plate. Following the compound addition the plate was incubated at 37° C. and 5% CO2 for 22 h. After 22 h, viability was assessed with the addition of 20 μL of Cell Titer-Glo 2.0 (Promega, Catalog #G9243). The tissue culture plate was shaken on an orbital shaker at 300 RPM for 15 minutes at rt in the dark. Luminescence was measured using a PerkinElmer Envision™ plate reader. IC50 values were calculated using a four-parameter logistic curve fit using Genedata Screener software. Results are shown below in Table 3, where the average value across multiple runs is given.
row,Structure (SMILES),IC50 [nM]
1,"Cc1c(F)cc([C@@H]2CC=NN2C(=O)C23CC(COc4ccc(C#N)cn4)(C2)C3)cc1F [Example 265, (S)-6-((3-(5-(3,5-difluoro-4-methylphenyl)-4,5-dihydro-1H-pyrazole-1-carbonyl)-bicyclo[1.1.1]pentan-1-yl)-methoxy)nicotinonitrile]",8.3
2,"N#Cc1ccc2c(cnn2CC23CC(C(=O)N4N=CCC4c4cc(F)c(Br)c(F)c4)(C2)C3)c1 (centres unmarked) [Example 241, 1-((3-(5-(4-bromo-3,5-difluorophenyl)-4,5-dihydro-1H-pyrazole-1-carbonyl)-bicyclo[1.1.1]pentan-1-yl)-methyl)-1H-indazole-5-carbonitrile]",18
3,"N#Cc1ccc(OCC23CC(C(=O)N4CC(F)CC4c4cccc(F)c4)(C2)C3)nc1 (centres unmarked) [Example 288, 6-((3-(4-fluoro-2-(3-fluoro-phenyl)pyrrolidine-1-carbonyl)bicyclo[1.1.1]pentan-1-yl)methoxy)nicotinonitrile]",276
4,"N#Cc1cnc(OCC23CC(C(=O)N4N=CCC4c4cc(F)cc(F)c4)(C2)C3)nc1 (centres unmarked) [Example 324, 2-((3-(5-(3,5-difluorophenyl)-4,5-dihydro-1H-pyrazole-1-carbonyl)bicyclo[1.1.1]pentan-1-yl)methoxy)pyrimidine-5-carbonitrile]",166
5,"N#Cc1cnc(OCC23CC(C(=O)NCc4cc(F)ccc4F)(C2)C3)cn1 [Example 298, 3-(((5-cyanopyrazin-2-yl)oxy)-methyl)-N-(2,5-difluoro-benzyl)bicyclo[1.1.1]pentane-1-carboxamide]",6700
6,"N#Cc1ccc2c(cnn2CC23CC(C(=O)N4N=CCC4c4cccc(F)c4F)(C2)C3)c1 (centres unmarked) [Example 237, 1-((3-(5-(2,3-difluoropheny1)-4,5-dihydro-1H-pyrazole-1-carbonyl)bicyclo[1.1.1]pentan-1-yl)methyl)-1H-indazole-5-carbonitrile]",7.8
7,"Cc1ccc(C2CC=NN2C(=O)C23CC(Cn4ncc5cc(C#N)ccc54)(C2)C3)c(F)c1 (centres unmarked) [Example 238, 1-((3-(5-(2-fluoro-4-methyl-phenyl)-4,5-dihydro-1H-pyrazole-1-carbonyl)bicyclo-[1.1.1]pentan-1-yl)methyl)-1H-indazole-5-carbonitrile]",8.4
8,"N#Cc1ccc(OCC23CC(C(=O)N4N=CCC4c4cncc(C#N)c4)(C2)C3)nc1 (centres unmarked) [Example 286, 5-(1-(3-(((5-cyanopyridin-2-yl)oxy)methyl)bicyclo[1.1.1]-pentane-1-carbonyl)-4,5-dihydro-1H-pyrazol-5-yl)-nicotinonitrile]",218
9,"N#Cc1ccc2c(cnn2CC23CC(C(=O)N4N=CCC4c4cc(F)c(C5CC5)c(F)c4)(C2)C3)c1 (centres unmarked) [Example 340, 1-((3-(5-(4-cyclopropyl-3,5-difluorophenyl)-4,5-dihydro-1H-pyrazole-1-carbonyl)-bicyclo[1.1.1]pentan-1-yl)-methyl)-1H-indazole-5-carbonitrile]",54
10,"N#Cc1ccc(OCC23CC(C(=O)N4N=CCC4c4cc(F)c(C5CC5)c(F)c4)(C2)C3)nc1 (centres unmarked) [Example 339, 6-((3-(5-(4-cyclopropyl-3,5-difluorophenyl)-4,5-dihydro-1H-pyrazole-1-carbonyl)-bicyclo[1.1.1]pentan-1-yl)-methoxy)nicotinonitrile]",453
11,"N#Cc1cnc(NCC23CC(C(=O)N4N=CCC4c4cc(F)cc(F)c4)(C2)C3)cn1 (centres unmarked) [Example 205, 5-(((3-(5-(3,5-Difluorophenyl)-4,5-dihydro-1H-pyrazole-1-carbonyl)bicyclo[1.1.1]pentan-1-yl)methyl)amino)pyrazine-2-carbonitrile]",436
12,"COc1ccc2c(cnn2CC23CC(C(=O)N4N=CCC4c4cc(F)cc(F)c4)(C2)C3)n1 (centres unmarked) [Example 215, (5-(3,5-difluorophenyl)-4,5-dihydro-1H-pyrazol-1-yl)(3-((5-methoxy-1H-pyrazolo[4,3-b]pyridin-1-yl)methyl)bicyclo-[1.1.1]pentan-1-yl)methanone]",80
13,"N#Cc1ccc(OCC23CC(C(=O)N4N=CCC4c4cccc(F)c4F)(C2)C3)nc1 (centres unmarked) [Example 270, 6-((3-(5-(2,3-difluorophenyl)-4,5-dihydro-1H-pyrazole-1-carbonyl)bicyclo[1.1.1]pentan-1-yl)methoxy)nicotinonitrile]",16
14,"C[C@H](NC(=O)C12CC(COc3cnc(C#N)cn3)(C1)C2)c1cc(F)ccc1F [Example 297, (S)-3-(((5-cyanopyrazin-2-yl)-oxy)methyl)-N-(1-(2,5-difluorophenyl)ethyl)bicyclo-[1.1.1]pentane-1-carboxamide]",6060
15,"N#Cc1cnc(OCC23CC(C(=O)N4N=CCC4c4cc(F)cc(F)c4)(C2)C3)c(Cl)c1 (centres unmarked) [Example 319, 5-chloro-6-((3-(5-(3,5-difluorophenyl)-4,5-dihydro-1H-pyrazole-1-carbonyl)-bicyclo[1.1.1]pentan-1-yl)-methoxy)nicotinonitrile]",21
16,"N#Cc1ccc(OCC23CC(C(=O)N4N=CCC4c4cc(F)c(CO)c(F)c4)(C2)C3)nc1 (centres unmarked) [Example 342, 6-((3-(5-(3,5-difluoro-4-(hydroxymethyl)phenyl)-4,5-dihydro-1H-pyrazole-1-carbonyl)bicyclo[1.1.1]pentan-1-yl)methoxy)nicotinonitrile]",380
17,"N#Cc1ccc(OCC23CC(C(=O)N4N=CCC4c4cc(F)cc(F)c4)(C2)C3)cn1 (centres unmarked) [Example 224, 5-((3-(5-(3,5-difluorophenyl)-4,5-dihydro-1H-pyrazole-1-carbonyl)bicyclo[1.1.1]pentan-1-yl)methoxy)picolinonitrile]",51
18,"CN(C(=O)C12CC(Cn3ncc4cc(C#N)ccc43)(C1)C2)c1ccccc1Cl [Example 299, N-(2-chlorophenyl)-3-((5-cyano-1H-indazol-1-yl)-methyl)-N-methylbicyclo-[1.1.1]pentane-1-carboxamide]",7010
19,"Cc1ccc(C2CC=NN2C(=O)C23CC(Cn4ncc5cc(C#N)ccc54)(C2)C3)cc1 (centres unmarked) [Example 309, 1-((3-(5-(p-tolyl)-4,5-dihydro-1H-pyrazole-1-carbonyl)-bicyclo[1.1.1]pentan-1-yl)-methyl)-1H-indazole-5-carbonitrile]",13
20,"N#Cc1cnc(OCC23CC(C(=O)N4N=CCC4c4cccc(Cl)c4Cl)(C2)C3)cn1 (centres unmarked) [Example 311, 5-((3-(5-(2,3-dichlorophenyl)-4,5-dihydro-1H-pyrazole-1-carbonyl)bicyclo[1.1.1]pentan-1-yl)methoxy)pyrazine-2-carbonitrile]",40
21,"Cc1ccc(C2CC=NN2C(=O)C23CC(COc4ccc(C#N)cn4)(C2)C3)cc1 (centres unmarked) [Example 273, 6-((3-(5-(p-tolyl)-4,5-dihydro-1H-pyrazole-1-carbonyl)-bicyclo[1.1.1]pentan-1-yl)-methoxy)nicotinonitrile]",30
22,"C[C@@H](c1ccccc1F)N(C)C(=O)C12CC(COc3cnc(C#N)cn3)(C1)C2 [Example 295, (S)-3-(((5-cyanopyrazin-2-yl)oxy)methyl)-N-(1-(2-fluoro-phenyl)ethyl)-N-methyl-bicyclo[1.1.1]pentane-1-carboxamide]",5680
23,N#Cc1cnc(OCC23CC(C(=O)N4CC(F)CC4c4cccc(F)c4)(C2)C3)cn1 (centres unmarked) [Example 283],160
24,"Cc1cc(F)c(C2CC=NN2C(=O)C23CC(COc4ccc(C#N)cn4)(C2)C3)cc1F (centres unmarked) [Example 305, 6-((3-(5-(2,5-difluoro-4-methylphenyl)-4,5-dihydro-1H-pyrazole-1-carbonyl)-bicyclo[1.1.1]pentan-1-yl)-methoxy)nicotinonitrile]",6.5
25,"O=C(N1N=CCC1c1cc(F)cc(F)c1)C12CC(C(F)c3cc(F)cc(Cl)c3)(C1)C2 (centres unmarked) [Example 227, (3-((3-chloro-5-fluorophenyl-)fluoromethyl)bicyclo[1.1.1]-pentan-1-yl)(5-(3,5-difluoro-phenyl)-4,5-dihydro-1H-pyrazol-1-yl)methanone]",133
26,"Cc1ccc(C2CC=NN2C(=O)C23CC(COc4cnc(C#N)cn4)(C2)C3)cc1 (centres unmarked) [Example 198, 5-((3-(5-(p-Tolyl)-4,5-dihydro-1H-pyrazole-1-carbonyl)bicyclo[1.1.1]pentan-1-yl)methoxy)pyrazine-2-carbonitrile]",7.4
27,"CC(c1cc(F)ccc1F)N(C)C(=O)C12CC(COc3cnc(C#N)cn3)(C1)C2 (centres unmarked) [Example 301, 3-(((5-cyanopyrazin-2-yl)oxy)-methyl)-N-(1-(2,5-difluoro-phenyl)ethyl)-N-methyl-bicyclo[1.1.1]pentane-1-carboxamide]",7740
28,"N#Cc1ccc2c(cnn2CC23CC(C(=O)N4N=CCC4c4ncc5ccccn45)(C2)C3)c1 (centres unmarked) [Example 247, 1-((3-(5-(imidazo[1,5-a]-pyridin-3-yl)-4,5-dihydro-1H-pyrazole-1-carbonyl)bicyclo[1.1.1]pentan-1-yl)methyl)-1H-indazole-5-carbonitrile]",81
29,"Cc1ccc(C2CC=NN2C(=O)C23CC(COc4cnc(C#N)cn4)(C2)C3)cc1F (centres unmarked) [Example 269, 5-((3-(5-(3-fluoro-4-methyl-phenyl)-4,5-dihydro-1H-pyrazole-1-carbonyl)bicyclo-[1.1.1]pentan-1-yl)-methoxy)pyrazine-2-carbonitrile]",5.4
